Legend:
KRAS G12D [1] = molecular target: T1, KRAS G12D (Homo sapiens, UniProt P01116, G12D); assay: KRAS_G12D GDP-GTP exchange assay (bodipy-GDP/GppNHp, SOS1); type: biochemical; settings: bodipy-loaded KRAS G12D 2.5 nM, 4 hours pre-incubation, 2 hours exchange
Experimental: (§1) The inhibitor potency of the exemplified compounds was determined in a fluorescence based guanine nucleotide exchange assay, which measures the exchange of bodipy-GDP (fluorescently labeled GDP) for GppNHp (Non-hydrolyzable GTP analog) to generate the active state of KRAS in the presence of SOS1 (guanine nucleotide exchange factor). Inhibitors were serially diluted in DMSO and a volume of 0.1 μL was transferred to the wells of a black low volume 384-well plate. 5 μL/well volume of bodipy-loaded KRAS G12D diluted to 2.5 nM in assay buffer (25 mM Hepes pH 7.5, 50 mM NaCl, 10 mM MgCl2 and 0.01% Brij-35) was added to the plate and pre-incubated with inhibitor for 4 hours at ambient temperature. Appropriate controls (enzyme with no inhibitor or with a G12D inhibitor) were included on the plate. The exchange was initiated by the addition of a 5 μL/well volume containing 1 mM GppNHp and 300 nM SOS1 in assay buffer. The 10 μL/well reaction concentration of the bodipy-loaded KRAS G12D, GppNHp, and SOS1 were 2.5 nM, 500 uM, and 150 nM, respectively. The reaction plates were incubated at ambient temperature for 2 hours, a time estimated for complete GDP-GTP exchange in the absence of inhibitor. For the KRAS G12V mutant, similar guanine nucleotide exchange assays were used with 2.5 nM as final concentration for the bodipy loaded KRAS proteins and 3 hours incubation after adding GppNHp-SOS1 mixture. A cyclic peptide described to selectively bind G12D mutant (Sakamoto et al., BBRC 484.3 (2017), 605-611) or internal compounds with confirmed binding were used as positive controls in the assay plates. Fluorescence intensities were measured on a PheraStar plate reader instrument (BMG Labtech) with excitation at 485 nm and emission at 520 nm.
(§2) Either GraphPad prism or XLfit was used to analyze the data. The IC50 values were derived by fitting the data to a four parameter logistic equation producing a sigmoidal dose-response curve with a variable Hill coefficient. Prism equation: Y=Bottom+(Top−Bottom)/(1+10^((Log IC50−X)*Hill slope)); XLfit equation: Y=(A+((B−A)/(1+((X/C)^D)))) where X is the logarithm of inhibitor concentration and Y is the response.

KRAS G12D [2] = molecular target: T1, KRAS G12D; assay: KRAS_G12D cellular pERK HTRF assay; type: cell-based; parameters: CRL-1997; host or cells: A427 or HPAF-II; settings: KRAS G12D cells (A427, HPAF-II), 2 hours; for IC50: read-out: G12D_pERK (KRAS_G12D pERK assay IC50)
Experimental: MIA PaCa-2 (KRAS G12C; ATCC® CRL-1420), A427 (KRAS G12D; ATCC® HTB53), HPAF-II (KRAS G12D; ATCC® CRL-1997) and NCI-H838 (KRAS WT; ATCC® CRL-5844) cells are purchased from ATCC and maintained in RPMI 1640 media supplemented with 10% FBS (Gibco/Life Technologies). The cells are plated at 5000 cells per well (8 uL) into Greiner 384-well low volume, flat-bottom, tissue culture treated white plates and incubated overnight at 37° C., 5% CO2. The next morning, test compound stock solutions are diluted in media at 3x the final concentration, and 4 uL are added to the cells. The plate is mixed by gentle rotation for 30 seconds (250 rpm) at room temperature. The cells are incubated with the KRAS G12C and G12D compounds for 4 hours or 2 hours respectively at 37° C., 5% CO2.
4 uL of 4x lysis buffer with blocking reagent (1:25) (Cisbio) are added to each well and plates are rotated gently (300 rpm) for 30 minutes at room temperature. 4 uL per well of Cisbio anti Phospho-ERK 1/2 d2 is mixed with anti Phospho-ERK 1/2 Cryptate (1:1) are added to each well, mixed by rotation and incubated overnight in the dark at room temperature. Plates are read on the Pherastar plate reader at 665 nm and 620 nm wavelengths. IC50 determination is performed by fitting the curve of inhibitor percent inhibition versus the log of the inhibitor concentration using the GraphPad Prism 7 software.

KRAS G12V [3] = molecular target: T2, KRAS G12V (Homo sapiens, UniProt P01116, G12V); assay: KRAS_G12V pERK assay; type: cell-based; settings: read-out: G12V_pERK (KRAS_G12V pERK assay IC50)
T2 sequence (P01116 1-188 isoform P01116-2 G12V): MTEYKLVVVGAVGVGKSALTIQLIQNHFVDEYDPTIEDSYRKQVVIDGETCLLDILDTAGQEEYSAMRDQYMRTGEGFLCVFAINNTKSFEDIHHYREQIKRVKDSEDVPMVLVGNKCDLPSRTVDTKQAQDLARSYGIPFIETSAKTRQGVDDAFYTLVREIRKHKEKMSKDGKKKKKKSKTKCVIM

KRAS G12V [4] = molecular target: T2, KRAS G12V; assay: KRAS_G12V GDP-GTP exchange assay (bodipy-GDP/GppNHp, SOS1); type: biochemical; settings: bodipy loaded KRAS G12V 2.5 nM, 3 hours incubation after GppNHp-SOS1; read-out: G12V_exchange (KRAS_G12V exchange assay IC50)
Experimental: as §1, §2

T1 sequence (P01116 1-188 isoform P01116-2 G12D): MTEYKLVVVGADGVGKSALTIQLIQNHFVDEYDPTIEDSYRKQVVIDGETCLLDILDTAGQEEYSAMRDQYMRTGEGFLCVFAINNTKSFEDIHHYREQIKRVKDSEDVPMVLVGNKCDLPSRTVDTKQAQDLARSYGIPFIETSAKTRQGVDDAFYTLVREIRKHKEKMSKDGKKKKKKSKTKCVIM

Row | SMILES | G12D_exchange (KRAS_G12D exchange assay IC50) (KRAS G12D [1]) | G12D_pERK (KRAS_G12D pERK assay IC50) (KRAS G12D [2]) | IC50 (KRAS G12V [3]) | IC50 (KRAS G12V [4]) | IC50 (KRAS G12D [2]) | IC50 (KRAS G12D [1]; read-out: G12D_exchange (KRAS_G12D exchange assay IC50))
1 | C[C@H](Oc1nc2c(F)c(-c3cccc4c3OCCC4)ncc2c2c1cc(C1CC[C@H]3COC(=O)N13)n2[C@H]1[C@H]2CN[C@@H]1C2)[C@@H]1CCCN1C (single isomer, unassigned) [Example 26a] | † | † | 1000 to 5000 nM | ≤ 100 nM |  | 
2 | CN(C)C(=O)CCc1nc2c(N3CC(N(C)C)C3)nc3cc(-c4cc(O)cc5ccccc45)c(CCC#N)nc3c2n1C1C2CNC1C2 (single isomer, unassigned) [Example 17b, 3-(1-((endo)-2-azabicyclo[2.1.1]hexan-5-yl)-8-(2-cyanoethyl)-4-(3-(dimethylamino)azetidin-1-yl)-7-(3-hydroxynaphthalen-1-yl)-1H-imidazo[4,5-c][1,5]naphthyridin-2-yl)-N,N-dimethylpropanamide] | † |  |  | 1000 to 5000 nM | 5000 to 10000 nM | 
3 | COC(=O)CCc1cc2c(OC[C@@]34CCCN3C[C@H](F)C4)nc3c(F)c(-c4cc(O)cc5ccccc45)ncc3c2n1C1C2CNC1C2 (single isomer, unassigned) [Example 2a] | † |  |  | 100 to 1000 nM | 1000 to 5000 nM | 
4 | COC(=O)CCc1cc2c(OC[C@@]34CCCN3C[C@H](F)C4)nc3c(F)c(-c4cc(O)cc5ccccc45)ncc3c2n1C1C2CNC1C2 (single isomer, unassigned) [Example 2b] | † |  | 5000 to 10000 nM | ≤ 100 nM | 100 to 1000 nM | 
5 | Cc1cc2c(O[C@@H](C)[C@@H]3CCCN3C)nc3c(F)c(-c4cc(O)cc5ccccc45)ncc3c2n1C1C2CNC1C2 (single isomer, unassigned) [Example 3b] | † |  | 5000 to 10000 nM | 100 to 1000 nM | 100 to 1000 nM | 
6 | C[C@H](Oc1nc2c(F)c(-c3cccc4c3OCCC4)ncc2c2c1cc(C1CC[C@H]3COC(=O)N13)n2[C@H]1[C@H]2CN[C@@H]1C2)[C@@H]1CCCN1C (single isomer, unassigned) [Example 26b] |  |  |  | 100 to 1000 nM | 1000 to 5000 nM | 100 to 1000 nM
7 | COC(=O)CCc1cc2c(O[C@@H](C)[C@@H]3CCCN3C)nc3c(F)c(-c4cc(O)cc5ccccc45)ncc3c2n1C1C2CNC1C2 (single isomer, unassigned) [Example 1a] | † | † | 1000 to 5000 nM | ≤ 100 nM |  | 
8 | COC(=O)CCc1nc2c(N3CC(N(C)C)C3)nc3c(F)c(-c4cc(O)cc5ccccc45)ncc3c2n1[C@@H]1[C@@H]2CN[C@H]1C2 (relative stereo) [Example 11, methyl 3-(1-((endo)-2-azabicyclo[2.1.1]hexan-5-yl)-4-(3-(dimethylamino)azetidin-1-yl)-6-fluoro-7-(3-hydroxynaphthalen-1-yl)-1H-imidazo[4,5-c][1,6]naphthyridin-2-yl)propanoate] | † |  |  | 100 to 1000 nM | 1000 to 5000 nM | 
9 | Cc1cc2c(O[C@@H](C)[C@@H]3CCCN3C)nc3c(F)c(-c4cc(O)cc5ccccc45)ncc3c2n1C1C2CNC1C2 (single isomer, unassigned) [Example 3a] | † | † | 100 to 1000 nM | ≤ 100 nM |  | 
10 | Cc1cc2c(OCC34CCCN3CCC4)nc3c(F)c(-c4cc(O)cc5ccccc45)ncc3c2n1[C@@H]1[C@@H]2CN[C@H]1C2 (relative stereo) [Example 4, 4-(1-((endo)-2-azabicyclo[2.1.1]hexan-5-yl)-6-fluoro-2-methyl-4-((tetrahydro-1H-pyrrolizin-7a(5H)-yl)methoxy)-1H-pyrrolo[3,2-c][1,6]naphthyridin-7-yl)naphthalen-2-ol] | † |  | 1000 to 5000 nM | ≤ 100 nM | 100 to 1000 nM | 
11 | COC(=O)CCc1cc2c(O[C@@H](C)[C@@H]3CCCN3C)nc3c(F)c(-c4cc(O)cc5ccccc45)ncc3c2n1C1C2CNC1C2 (single isomer, unassigned) [Example 1b] | † |  | 100 to 1000 nM | ≤ 100 nM |  | 
12 | C[C@H](Oc1nc2c(F)c(N3CCCc4ccccc43)ncc2c2c1cc(CN1CCOC1=O)n2C1C2CNC1C2)[C@@H]1CCCN1C (single isomer, unassigned) [Example 7a] | † |  |  | 100 to 1000 nM | 1000 to 5000 nM | 
13 | C[C@H](Oc1nc2c(F)c(-c3cccc4c3OCCC4)ncc2c2c1cc(-c1cn(C)nc1C(=O)N(C)C)n2[C@H]1[C@H]2CN[C@@H]1C2)[C@@H]1CCCN1C [Example 27, 4-(1-((1R,4R,5S)-2-azabicyclo[2.1.1]hexan-5-yl)-7-(chroman-8-yl)-6-fluoro-4-((S)-1-((S)-1-methylpyrrolidin-2-yl)ethoxy)-1H-pyrrolo[3,2-c][1,6]naphthyridin-2-yl)-N,N,1-trimethyl-1H-pyrazole-3-carboxamide] | † |  | 1000 to 5000 nM | ≤ 100 nM | 1000 to 5000 nM | 
14 | COC(=O)N1CCC[C@@H]1c1cc2c(O[C@@H](C)CN3CCCC3)nc3c(F)c(-c4cccc5scnc45)ncc3c2n1[C@H]1[C@H]2CN[C@@H]1C2 [Example 25, methyl (R)-2-(7-(benzo[d]thiazol-4-yl)-1-((1R,4R,5S)-2-azabicyclo[2.1.1]hexan-5-yl)-6-fluoro-4-(((S)-1-(pyrrolidin-1-yl)propan-2-yl)oxy)-1H-pyrrolo[3,2-c][1,6]naphthyridin-2-yl)pyrrolidine-1-carboxylate] | † | † | 1000 to 5000 nM | 100 to 1000 nM |  | 

— US12441742B2, “Naphthyridine compounds as inhibitors of KRAS” (Incyte Corporation, priority 2021, dated 2025)
